Assay results as given in paper PMC4774911, “Biochemical Screening of Five Protein Kinases from Plasmodium falciparum against 14,000 Cell-Active Compounds” (PLoS ONE, 2016).
“And” between values parts separate entries of the source, which are not always exact repeats. Equal values may be shown once. Read-outs that look alike come from different tables or passages of the source.

How the values were obtained:
LOC100128443 = conditions: human
P. falciparum 3D7 cells = conditions: cited from earlier work
ABL2 = ABL2 (Homo sapiens, UniProt P42684); assay: biochemical; design: endogenous in cells; host or cells: K562 cell extract; species or system K562 (extract); replicate k of n = 2 (each experiment ID is one independent experiment; two experiment IDs per compound); conditions: read-out: KDapp
Chain of ABL2 (P42684 whole entry): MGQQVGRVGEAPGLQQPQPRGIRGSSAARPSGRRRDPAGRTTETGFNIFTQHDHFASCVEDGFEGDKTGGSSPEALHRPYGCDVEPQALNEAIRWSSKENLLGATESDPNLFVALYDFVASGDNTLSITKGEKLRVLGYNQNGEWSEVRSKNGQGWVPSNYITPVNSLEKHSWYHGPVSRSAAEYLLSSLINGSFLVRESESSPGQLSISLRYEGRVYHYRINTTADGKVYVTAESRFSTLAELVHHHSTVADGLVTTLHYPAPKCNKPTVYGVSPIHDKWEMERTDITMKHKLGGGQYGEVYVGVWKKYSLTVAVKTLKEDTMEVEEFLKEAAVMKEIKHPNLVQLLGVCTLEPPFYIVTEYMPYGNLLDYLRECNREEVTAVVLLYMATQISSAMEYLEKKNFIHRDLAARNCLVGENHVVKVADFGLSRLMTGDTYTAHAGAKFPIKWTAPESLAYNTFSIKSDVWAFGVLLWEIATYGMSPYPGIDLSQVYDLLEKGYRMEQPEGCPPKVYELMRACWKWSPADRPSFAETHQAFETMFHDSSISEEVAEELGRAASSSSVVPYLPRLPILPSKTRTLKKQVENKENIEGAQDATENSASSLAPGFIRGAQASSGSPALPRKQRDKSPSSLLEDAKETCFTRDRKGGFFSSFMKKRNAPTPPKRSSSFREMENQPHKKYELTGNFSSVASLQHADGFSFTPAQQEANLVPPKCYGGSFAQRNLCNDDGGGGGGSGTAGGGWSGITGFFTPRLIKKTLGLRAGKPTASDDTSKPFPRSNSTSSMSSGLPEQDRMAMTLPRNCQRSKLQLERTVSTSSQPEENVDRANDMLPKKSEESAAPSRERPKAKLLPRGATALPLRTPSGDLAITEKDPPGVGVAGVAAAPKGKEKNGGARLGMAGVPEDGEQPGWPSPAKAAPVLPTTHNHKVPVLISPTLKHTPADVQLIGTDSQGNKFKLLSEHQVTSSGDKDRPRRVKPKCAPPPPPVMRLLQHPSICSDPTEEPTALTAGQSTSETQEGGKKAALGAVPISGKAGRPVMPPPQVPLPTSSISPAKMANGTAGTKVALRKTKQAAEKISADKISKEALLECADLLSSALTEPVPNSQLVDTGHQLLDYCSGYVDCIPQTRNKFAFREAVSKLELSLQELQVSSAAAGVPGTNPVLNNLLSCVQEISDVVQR

CIT = CIT (Homo sapiens, UniProt O14578); assay: biochemical; design: endogenous in cells; host or cells: K562 cell extract; species or system K562 (extract); replicate k of n = 2 (each experiment ID is one independent experiment; two experiment IDs per compound); conditions: read-out: KDapp
Chain of CIT (O14578 whole entry): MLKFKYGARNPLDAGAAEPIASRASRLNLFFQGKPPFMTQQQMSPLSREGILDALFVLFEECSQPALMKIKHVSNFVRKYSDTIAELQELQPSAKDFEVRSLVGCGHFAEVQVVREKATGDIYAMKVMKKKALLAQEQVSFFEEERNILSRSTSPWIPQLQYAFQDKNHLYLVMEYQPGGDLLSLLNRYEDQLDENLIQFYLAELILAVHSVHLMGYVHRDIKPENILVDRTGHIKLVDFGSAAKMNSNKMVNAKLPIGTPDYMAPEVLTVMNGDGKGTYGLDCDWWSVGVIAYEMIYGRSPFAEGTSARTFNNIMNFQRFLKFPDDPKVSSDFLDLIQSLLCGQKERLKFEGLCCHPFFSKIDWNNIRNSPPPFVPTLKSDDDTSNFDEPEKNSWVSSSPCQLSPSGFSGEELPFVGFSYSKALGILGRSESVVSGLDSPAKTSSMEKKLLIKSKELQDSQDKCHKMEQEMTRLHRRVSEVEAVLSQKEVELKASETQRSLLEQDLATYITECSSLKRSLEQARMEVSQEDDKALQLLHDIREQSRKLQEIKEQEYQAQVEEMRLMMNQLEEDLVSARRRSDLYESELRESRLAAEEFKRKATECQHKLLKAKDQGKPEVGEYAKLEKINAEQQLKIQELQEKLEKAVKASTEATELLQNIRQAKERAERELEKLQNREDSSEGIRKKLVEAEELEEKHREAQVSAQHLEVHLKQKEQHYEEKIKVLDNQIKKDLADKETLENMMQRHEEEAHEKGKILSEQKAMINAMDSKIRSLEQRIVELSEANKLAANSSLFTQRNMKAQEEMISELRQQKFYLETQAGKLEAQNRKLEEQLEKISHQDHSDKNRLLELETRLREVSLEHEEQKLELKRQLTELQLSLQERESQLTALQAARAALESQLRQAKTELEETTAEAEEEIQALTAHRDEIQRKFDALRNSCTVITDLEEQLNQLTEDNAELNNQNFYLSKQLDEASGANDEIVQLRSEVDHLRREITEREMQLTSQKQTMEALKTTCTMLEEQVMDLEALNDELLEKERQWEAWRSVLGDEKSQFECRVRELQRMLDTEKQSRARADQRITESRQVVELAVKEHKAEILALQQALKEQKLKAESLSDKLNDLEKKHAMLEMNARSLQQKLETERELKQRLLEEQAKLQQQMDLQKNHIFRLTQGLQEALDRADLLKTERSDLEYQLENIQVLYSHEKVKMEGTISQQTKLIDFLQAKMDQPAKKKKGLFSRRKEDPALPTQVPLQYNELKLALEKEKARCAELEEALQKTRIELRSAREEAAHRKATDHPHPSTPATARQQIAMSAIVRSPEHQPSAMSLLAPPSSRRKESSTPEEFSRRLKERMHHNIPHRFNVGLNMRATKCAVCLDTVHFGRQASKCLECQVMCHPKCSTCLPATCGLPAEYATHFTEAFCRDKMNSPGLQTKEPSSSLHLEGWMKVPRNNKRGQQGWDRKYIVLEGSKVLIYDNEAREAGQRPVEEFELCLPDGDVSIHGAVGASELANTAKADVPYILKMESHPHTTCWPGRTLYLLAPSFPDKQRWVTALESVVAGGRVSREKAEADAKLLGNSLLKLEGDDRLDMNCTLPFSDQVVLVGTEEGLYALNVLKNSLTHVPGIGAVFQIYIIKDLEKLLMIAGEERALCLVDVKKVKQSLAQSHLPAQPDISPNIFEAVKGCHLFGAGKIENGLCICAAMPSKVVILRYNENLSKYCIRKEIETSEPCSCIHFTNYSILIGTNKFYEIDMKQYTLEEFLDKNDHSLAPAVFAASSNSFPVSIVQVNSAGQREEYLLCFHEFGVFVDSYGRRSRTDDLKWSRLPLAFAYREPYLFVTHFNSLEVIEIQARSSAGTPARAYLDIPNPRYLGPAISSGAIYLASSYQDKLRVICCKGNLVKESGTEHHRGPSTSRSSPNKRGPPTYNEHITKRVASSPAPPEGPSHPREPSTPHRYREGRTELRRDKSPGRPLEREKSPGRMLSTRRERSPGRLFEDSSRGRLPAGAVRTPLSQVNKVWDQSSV

DDR1 = DDR1 (Homo sapiens, UniProt Q08345); assay: biochemical; design: endogenous in cells; host or cells: K562 cell extract; species or system K562 (extract); replicate k of n = 2 (each experiment ID is one independent experiment; two experiment IDs per compound); conditions: read-out: KDapp
Chain of DDR1 (Q08345 whole entry): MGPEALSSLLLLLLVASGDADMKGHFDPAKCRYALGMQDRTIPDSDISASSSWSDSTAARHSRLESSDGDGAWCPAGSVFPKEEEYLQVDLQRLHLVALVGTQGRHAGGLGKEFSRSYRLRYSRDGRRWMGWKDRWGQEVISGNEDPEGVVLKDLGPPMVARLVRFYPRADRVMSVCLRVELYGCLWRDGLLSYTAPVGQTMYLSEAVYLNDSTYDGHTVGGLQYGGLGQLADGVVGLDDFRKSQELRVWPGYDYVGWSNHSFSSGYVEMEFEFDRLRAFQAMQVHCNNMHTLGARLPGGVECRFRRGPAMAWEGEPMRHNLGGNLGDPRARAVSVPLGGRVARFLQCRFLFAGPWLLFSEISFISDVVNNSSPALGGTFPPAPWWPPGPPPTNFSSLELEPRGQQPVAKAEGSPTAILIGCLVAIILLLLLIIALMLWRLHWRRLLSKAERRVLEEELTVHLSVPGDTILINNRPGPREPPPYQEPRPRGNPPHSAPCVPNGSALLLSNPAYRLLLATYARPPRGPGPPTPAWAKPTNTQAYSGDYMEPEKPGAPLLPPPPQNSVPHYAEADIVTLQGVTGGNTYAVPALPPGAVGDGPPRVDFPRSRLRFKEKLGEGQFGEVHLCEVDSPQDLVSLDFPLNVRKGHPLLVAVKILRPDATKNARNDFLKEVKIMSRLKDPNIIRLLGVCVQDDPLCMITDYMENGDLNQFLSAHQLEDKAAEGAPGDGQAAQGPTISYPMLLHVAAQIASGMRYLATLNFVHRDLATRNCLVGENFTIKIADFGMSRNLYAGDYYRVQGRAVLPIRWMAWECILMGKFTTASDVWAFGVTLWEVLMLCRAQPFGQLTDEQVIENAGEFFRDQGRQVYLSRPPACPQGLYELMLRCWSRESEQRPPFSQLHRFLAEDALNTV

PAK4 = PAK4 (Homo sapiens, UniProt O96013); assay: biochemical; design: endogenous in cells; host or cells: K562 cell extract; species or system K562 (extract); replicate k of n = 2 (each experiment ID is one independent experiment; two experiment IDs per compound); conditions: read-out: KDapp
PRKD3 = target: T1, PRKD3 (Homo sapiens, UniProt O94806); assay: biochemical; design: endogenous in cells; host or cells: K562 cell extract; species or system K562 (extract); replicate k of n = 2 (each experiment ID is one independent experiment; two experiment IDs per compound); conditions: read-out: KDapp
T1 sequence (O94806 1-890): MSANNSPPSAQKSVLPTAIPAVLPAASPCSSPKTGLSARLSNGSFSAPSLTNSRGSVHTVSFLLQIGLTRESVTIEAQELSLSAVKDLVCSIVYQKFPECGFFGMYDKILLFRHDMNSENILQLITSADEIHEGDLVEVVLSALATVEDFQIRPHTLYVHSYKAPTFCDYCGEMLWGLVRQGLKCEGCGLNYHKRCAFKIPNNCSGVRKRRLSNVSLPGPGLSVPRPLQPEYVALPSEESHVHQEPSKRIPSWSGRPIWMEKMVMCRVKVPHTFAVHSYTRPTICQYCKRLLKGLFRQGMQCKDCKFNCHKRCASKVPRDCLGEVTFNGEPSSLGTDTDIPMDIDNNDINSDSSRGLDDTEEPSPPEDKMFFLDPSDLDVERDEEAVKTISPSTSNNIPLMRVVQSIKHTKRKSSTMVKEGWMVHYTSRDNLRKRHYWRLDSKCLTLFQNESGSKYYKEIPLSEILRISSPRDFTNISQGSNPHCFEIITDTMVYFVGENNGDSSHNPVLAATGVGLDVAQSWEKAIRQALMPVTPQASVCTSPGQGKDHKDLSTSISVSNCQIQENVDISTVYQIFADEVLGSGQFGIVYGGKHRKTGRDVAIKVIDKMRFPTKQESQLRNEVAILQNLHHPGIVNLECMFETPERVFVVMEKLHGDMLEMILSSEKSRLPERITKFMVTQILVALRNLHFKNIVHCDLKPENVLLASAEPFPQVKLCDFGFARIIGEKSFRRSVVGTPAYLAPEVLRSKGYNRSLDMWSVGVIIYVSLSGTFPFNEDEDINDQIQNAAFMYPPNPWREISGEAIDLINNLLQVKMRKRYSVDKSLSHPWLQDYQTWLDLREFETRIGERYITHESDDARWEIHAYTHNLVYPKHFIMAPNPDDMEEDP

CSNK1A1 = CSNK1A1 (Homo sapiens, UniProt P48729); assay: biochemical; design: endogenous in cells; host or cells: K562 cell extract; species or system K562 (extract); replicate k of n = 2 (each experiment ID is one independent experiment; two experiment IDs per compound); conditions: read-out: KDapp
STK10 = STK10 (Homo sapiens, UniProt O94804); assay: biochemical; design: endogenous in cells; host or cells: K562 cell extract; species or system K562 (extract); replicate k of n = 2 (each experiment ID is one independent experiment; two experiment IDs per compound); conditions: read-out: KDapp
Chain of STK10 (O94804 whole entry): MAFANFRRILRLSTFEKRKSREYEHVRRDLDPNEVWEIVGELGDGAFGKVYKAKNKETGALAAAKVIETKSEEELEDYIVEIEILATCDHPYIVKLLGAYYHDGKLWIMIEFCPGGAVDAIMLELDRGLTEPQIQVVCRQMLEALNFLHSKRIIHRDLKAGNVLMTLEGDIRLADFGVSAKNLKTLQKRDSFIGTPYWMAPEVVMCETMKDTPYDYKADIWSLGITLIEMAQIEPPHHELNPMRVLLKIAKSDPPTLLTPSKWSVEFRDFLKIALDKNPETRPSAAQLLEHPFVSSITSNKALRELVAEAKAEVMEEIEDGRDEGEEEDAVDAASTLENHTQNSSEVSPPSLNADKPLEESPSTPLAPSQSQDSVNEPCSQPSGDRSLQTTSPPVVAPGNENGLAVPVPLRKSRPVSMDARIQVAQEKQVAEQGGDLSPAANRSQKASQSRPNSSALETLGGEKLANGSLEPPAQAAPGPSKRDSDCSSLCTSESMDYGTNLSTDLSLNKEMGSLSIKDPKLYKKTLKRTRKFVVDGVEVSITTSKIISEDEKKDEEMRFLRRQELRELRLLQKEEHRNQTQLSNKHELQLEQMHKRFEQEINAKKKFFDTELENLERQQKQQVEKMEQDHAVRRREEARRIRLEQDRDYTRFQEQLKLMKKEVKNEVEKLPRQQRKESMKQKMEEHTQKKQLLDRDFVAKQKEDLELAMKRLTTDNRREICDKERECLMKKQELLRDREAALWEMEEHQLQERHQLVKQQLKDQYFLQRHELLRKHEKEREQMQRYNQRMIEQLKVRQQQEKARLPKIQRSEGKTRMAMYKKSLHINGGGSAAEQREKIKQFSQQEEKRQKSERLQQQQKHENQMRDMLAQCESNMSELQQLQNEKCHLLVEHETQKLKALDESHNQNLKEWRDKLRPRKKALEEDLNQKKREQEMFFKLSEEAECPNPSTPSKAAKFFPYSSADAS

STK11 = target: T2, STK11 (Homo sapiens, UniProt Q15831); assay: biochemical; design: endogenous in cells; host or cells: K562 cell extract; species or system K562 (extract); replicate k of n = 2 (each experiment ID is one independent experiment; two experiment IDs per compound); conditions: read-out: KDapp
T2 sequence (Q15831 1-433): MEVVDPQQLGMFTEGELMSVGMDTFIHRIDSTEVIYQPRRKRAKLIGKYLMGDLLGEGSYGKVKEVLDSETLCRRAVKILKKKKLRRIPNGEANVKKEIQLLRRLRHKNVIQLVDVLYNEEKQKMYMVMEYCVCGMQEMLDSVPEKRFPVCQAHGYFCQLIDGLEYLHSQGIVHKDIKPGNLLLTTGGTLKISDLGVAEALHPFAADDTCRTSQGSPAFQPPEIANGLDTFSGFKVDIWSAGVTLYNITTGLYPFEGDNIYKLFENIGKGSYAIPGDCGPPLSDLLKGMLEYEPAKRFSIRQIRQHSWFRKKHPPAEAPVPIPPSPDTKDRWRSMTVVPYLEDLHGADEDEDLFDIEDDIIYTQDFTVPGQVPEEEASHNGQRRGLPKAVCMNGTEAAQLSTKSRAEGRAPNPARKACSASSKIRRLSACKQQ

TNIK = TNIK (Homo sapiens, UniProt Q9UKE5); assay: biochemical; design: endogenous in cells; host or cells: K562 cell extract; species or system K562 (extract); replicate k of n = 2 (each experiment ID is one independent experiment; two experiment IDs per compound); conditions: read-out: KDapp
PIP5K3 = PIP5K3 (Homo sapiens, UniProt Q9Y2I7); assay: biochemical; design: endogenous in cells; host or cells: K562 cell extract; species or system K562 (extract); replicate k of n = 2 (each experiment ID is one independent experiment; two experiment IDs per compound); conditions: read-out: KDapp
[1] = 3D7, downloaded from ChEMBL, ref F.J. Gamo et al., Nature 2010
[2] = P. falciparum 3D7, downloaded from ChEMBL ref F.J. Gamo et al., Nature 2010

Structure (SMILES) | IC50 (LOC100128443) [nM] | PCT_IHB_3D7 (P. falciparum 3D7 cells; [1]) [%] | pXC50_3D7 (P. falciparum 3D7 cells; [1]) | Kd (ABL2) | Kd (CIT) | Kd (DDR1) | Kd (PAK4) | Kd (PRKD3) | Kd (CSNK1A1) | Kd (STK10) | Kd (STK11) [nM] | Kd (TNIK) | Kd (PIP5K3) | PCT_IHB_3D7 (P. falciparum 3D7 cells; [2]) | pXC50_3D7 (P. falciparum 3D7 cells; [2]) | PCT_IHB_3D7 (P. falciparum 3D7 cells; P. falciparum 3D7, ref ChEMBL) | pXC50_3D7 (P. falciparum 3D7 cells; P. falciparum 3D7, ref ChEMBL)
CN1CCN(c2ccc(Nc3ncc(C#N)c(Nc4ccccc4C(N)=O)n3)cc2)CC1.Cl [TCMDC-134116] | 330 | 92 | 7.405 | 89.8 nM and 71.9 nM | 4860 nM and 4950 nM | 326 nM and 266 nM | 205 nM and 227 nM | 166 nM | 742 nM and 1080 nM | 25.6 nM and 49.6 nM | 894 | 92.2 nM and 115 nM | 681 nM and 785 nM |  |  |  | 
Cl.NCC1(c2nc(-c3ccc(Cl)c(O)c3)c(-c3ccncc3)[nH]2)CCCCC1 [TCMDC-141154] | > 20000 |  |  | 220 nM and 180 nM | 137 nM and 239 nM | 977 nM | 4910 nM | 3910 nM | 224 nM and 255 nM | 30.4 nM | 1250 | 134 nM | 524 nM | 98 | 6.128 |  | 
CN(C)CC(O)COc1ccc(Nc2ncc([N+](=O)[O-])c(Nc3ccccc3O)n2)cc1.O=C(O)C(F)(F)F (stereo not drawn) [TCMDC-141399] | > 20000 |  |  | 1890 nM | 3750 nM | 5970 nM | 4850 nM and 3670 nM | 4090 nM and 3410 nM | 7650 nM | 3360 nM | 3940 | 378 nM | 3930 nM and 2770 nM |  |  | 100 | 6.118
